Laboratory results as given in patent US20250017928A1, “OPHTHALMIC PHARMACEUTICAL COMPOSITIONS CONTAINING A NITRIC OXIDE-RELEASING PHOSPHODIESTERASE 5 INHIBITOR AND METHOD FOR THE PREPARATION THEREOF” (Nicox SA, priority 2021, published 2025).

Test: Aqueous solubility of Compound (I) and its salts
Assay type: physicochemical
Conditions: aqueous medium; free base
Source text: In an effort to enhance the solubility of Compound (I) in aqueous vehicle, ‘salt forms’ of Compound (I) were explored.

solubility: 13 µg/mL
SMILES: COc1ccc(CNc2nc(N3CCC[C@H]3COC(=O)CCCCCO[N+](=O)[O-])ncc2C(=O)NCc2ncccn2)cc1Cl [Compound (I), [(2S)-1-(4-{[(3-chloro-4-methoxyphenyl)methyl]amino}-5-{[(pyrimidin-2-yl)methyl]carbamoyl}pyrimidin-2-yl)pyrrolidin-2-yl]methyl 6-(nitrooxy)hexanoate]
